Earlier results in WO2005058299A1, “Phenethanolamine derivatives for treatment of respiratory diseases” (Glaxo Group Ltd, priority 2003, dated 2005).

System: PDE4
Conditions: IC50 for PDE4 form which binds rolipram with high affinity divided by IC50 for form which binds rolipram with low affinity

In the case of COc1ccc([C@]2(C#N)CC[C@@H](C(=O)O)CC2)cc1OC1CCCC1 [cis 4-cyano-4-(3-cyclopentyloxy-4-methoxyphenyl)cyclohexan-1-carboxylic acid], the IC50 ratio is given as ≥ 0.1.

In the case of “c/s-[4-cyano-4-(3-cyclopropylmethoxy-4- difluoromethoxyphenyl)cyclohexan-1-ol]”, the IC50 ratio is given as ≥ 0.1.

In the case of COC(=O)C1CC(C#N)(c2ccc(OC(F)F)c(OCC3CC3)c2)CCC1=O (stereo not drawn) [2-carbomethoxy-4-cyano-4-(3-cyclopropylmethoxy-4-difluoromethoxyphenyl)cyclohexan-1-one], the IC50 ratio is given as ≥ 0.1.
